Test results taken from the C3SDB collision cross section collection.

conditions: [M+HCOO]-; instrument: DT; single field, calibrated with Agilent tune mix (Agilent)

| Structure (SMILES) | collision cross section (N2) [Å²] |
| --- | --- |
| CCCCCCCCCCCCCC(=O)OC[C@@H](O)COP(=O)([O-])OCC[N+](C)(C)C [LPC(14:0)] | 227 |
| CCCCC/C=C\C/C=C\C/C=C\CCCCC(=O)OC[C@H](COP(=O)([O-])OCC[N+](C)(C)C)OC(=O)CCCCCCCCC/C=C\C/C=C\CCCCC [PC(38:5)] | 293 |

same assay, conditions: [M+H]+; instrument: DT; single field, calibrated with Agilent tune mix (Agilent)

| Structure (SMILES) | collision cross section (N2) [Å²] |
| --- | --- |
| CCCCCCCCCCCCCCCC(=O)O[C@H](CO)COP(=O)(O)OCCN [LPE(16:0)] | 213.7 |
| CCCCC/C=C\C/C=C\C/C=C\CCCCC(=O)OC[C@H](COP(=O)([O-])OCC[N+](C)(C)C)OC(=O)CCCCCCCCC/C=C\C/C=C\CCCCC [PC(38:5)] | 292.9 |

Results, then the compound that gave them:

| collision cross section (N2) [Å²] | Structure (SMILES) |
| --- | --- |
| 278 | CC/C=C\C/C=C\C/C=C\C/C=C\C/C=C\C/C=C\CCC(=O)O[C@H](CO/C=C\CCCCCCCCCCCCCC)COP(=O)(O)OCCN [PE(p38:6)] |
| 298.8 | CCCCC/C=C\C/C=C\C/C=C\C/C=C\CCCCCC(=O)O[C@H](COC(=O)CCCCCCC/C=C\CCCCCCCC)COP(=O)([O-])OCC[N+](C)(C)C [PC(40:5)] |
| 299.3 | CCCC/C=C\CCCCCCCC(=O)OC[C@H](COP(=O)(O)O[C@H]1C(O)C(O)C(O)[C@@H](O)C1O)OC(=O)CCCCCCCCC/C=C\CCCCCCCCCC (stereo partly drawn) [PI(36:2)] |

same assay, conditions: [M+NH4]+; instrument: DT; single field, calibrated with Agilent tune mix (Agilent)

| collision cross section (N2) [Å²] | Structure (SMILES) |
| --- | --- |
| 270.8 | CCCC/C=C\C/C=C\CCCCCCCC(=O)O[C@H](COC(=O)CCCCCCC/C=C\CCCCCCCCC)COP(=O)(O)O [PA(36:3)] |
| 306.1 | CC/C=C\C/C=C\C/C=C\C/C=C\C/C=C\C/C=C\CCC(=O)O[C@H](COC(=O)CCCCCCCCCCCCCCCCC)COP(=O)(O)O[C@H]1C(O)C(O)C(O)[C@@H](O)C1O (stereo partly drawn) [PI(40:6)] |
| 272.4 | CCCCC/C=C\C/C=C\C/C=C\C/C=C\CCCCCC(=O)O[C@H](COC(=O)CCCCCCCCCCCCC)COP(=O)(O)O [PA(36:4)] |

same assay, conditions: [M+Na]+; instrument: DT; single field, calibrated with Agilent tune mix (Agilent)

| Structure (SMILES) | collision cross section (N2) [Å²] |
| --- | --- |
| CCCCCCCCCCCCCCCC(=O)O[C@H](CO)COP(=O)(O)OCCN [LPE(16:0)] | 219.9 |
| CCCCC/C=C\C/C=C\C/C=C\CCCCC(=O)OC[C@H](COP(=O)([O-])OCC[N+](C)(C)C)OC(=O)CCCCCCCCC/C=C\C/C=C\CCCCC [PC(38:5)] | 296.8 |

Continued, values first:

| collision cross section (N2) [Å²] | Structure (SMILES) |
| --- | --- |
| 302 | CCCCC/C=C\C/C=C\C/C=C\C/C=C\CCCCCC(=O)O[C@H](COC(=O)CCCCCCC/C=C\CCCCCCCC)COP(=O)([O-])OCC[N+](C)(C)C [PC(40:5)] |
| 297.6 | CCCC/C=C\CCCCCCCC(=O)OC[C@H](COP(=O)(O)O[C@H]1C(O)C(O)C(O)[C@@H](O)C1O)OC(=O)CCCCCCCCC/C=C\CCCCCCCCCC (stereo partly drawn) [PI(36:2)] |

same assay, conditions: [M-H]-; instrument: DT; single field, calibrated with Agilent tune mix (Agilent)

| Structure (SMILES) | collision cross section (N2) [Å²] |
| --- | --- |
| CCCCCCCCCCCCCCCC(=O)O[C@H](CO)COP(=O)(O)OCCN [LPE(16:0)] | 207.1 |
| CCCCC/C=C\C/C=C\C/C=C\C/C=C\CCCCCC(=O)O[C@H](COC(=O)CCCCCCCCCCCCC)COP(=O)(O)O [PA(36:4)] | 258.1 |

Next, values leading:

| collision cross section (N2) [Å²] | Structure (SMILES) |
| --- | --- |
| 296.4 | CC/C=C\C/C=C\C/C=C\C/C=C\C/C=C\C/C=C\CCC(=O)O[C@H](COC(=O)CCCCCCCCCCCCCCCCC)COP(=O)(O)O[C@H]1C(O)C(O)C(O)[C@@H](O)C1O (stereo partly drawn) [PI(40:6)] |
| 289.3 | CCCC/C=C\CCCCCCCC(=O)OC[C@H](COP(=O)(O)O[C@H]1C(O)C(O)C(O)[C@@H](O)C1O)OC(=O)CCCCCCCCC/C=C\CCCCCCCCCC (stereo partly drawn) [PI(36:2)] |

conditions: [M+CH3COO]-; instrument: TW; calibrated with phosphatidylcholines (ESI+) and phosphatidylethanolamines (ESI-)

| collision cross section (N2) [Å²] | Structure (SMILES) |
| --- | --- |
| 295.4 | CCCCC/C=C\C/C=C\C/C=C\CCCCC(=O)OC[C@H](COP(=O)([O-])OCC[N+](C)(C)C)OC(=O)CCCCCCCCC/C=C\C/C=C\CCCCC [PC(38:5)] |

same assay, conditions: [M+H-H2O]+; instrument: TW; calibrated with phosphatidylcholines (ESI+) and phosphatidylethanolamines (ESI-)

| collision cross section (N2) [Å²] | Structure (SMILES) |
| --- | --- |
| 255.9 | CCCCC/C=C\C/C=C\C/C=C\CCCCC(=O)OC[C@H](CO)OC(=O)CCCCCCC/C=C\CCCCCCCC [DG(18:2/18:2)] |

same assay, conditions: [M+H]+; instrument: TW; calibrated with phosphatidylcholines (ESI+) and phosphatidylethanolamines (ESI-)

| Structure (SMILES) | collision cross section (N2) [Å²] |
| --- | --- |
| CCCCCCCCCCCCCC(=O)OC[C@@H](O)COP(=O)([O-])OCC[N+](C)(C)C [LPC(14:0)] | 220.8 |
| CCCCCCCCCCCCCCCC(=O)O[C@H](CO)COP(=O)(O)OCCN [LPE(16:0)] | 213.4 |
| CCCCC/C=C\C/C=C\C/C=C\CCCCC(=O)OC[C@H](COP(=O)([O-])OCC[N+](C)(C)C)OC(=O)CCCCCCCCC/C=C\C/C=C\CCCCC [PC(38:5)] | 289.7 |
| CCCCCCCCCCCCC=CC[C@@H](O)[C@H](CO[C@@H]1O[C@H](CO)[C@@H](O)C(O)C1O)NC(=O)CC=CCCCCCCCCCCCCCCCCCC (stereo partly drawn) [GlcCer(d18:1/22:1)] | 293.1 |
| CCCCCCCCCCCCC=CC[C@@H](O)[C@H](CO[C@@H]1O[C@H](CO)[C@@H](O)C(O)C1O)NC(=O)CC=CCCCCCCCCCCCCCCCCCCCCCC (stereo partly drawn) [GlcCer(d18:1/26:1)] | 304.5 |
| CCCCCCCCCCCCC=CC[C@@H](O)[C@H](CO)NC(=O)CC=CCCCCCCCCCCCCCCCCCCCC [Cer(d18:1/24:1)] | 276.8 |

Results, then the compound that gave them:

| collision cross section (N2) [Å²] | Structure (SMILES) |
| --- | --- |
| 276.9 | CC/C=C\C/C=C\C/C=C\C/C=C\C/C=C\C/C=C\CCC(=O)O[C@H](CO/C=C\CCCCCCCCCCCCCC)COP(=O)(O)OCCN [PE(p38:6)] |
| 295.5 | CCCCC/C=C\C/C=C\C/C=C\C/C=C\CCCCCC(=O)O[C@H](COC(=O)CCCCCCC/C=C\CCCCCCCC)COP(=O)([O-])OCC[N+](C)(C)C [PC(40:5)] |
| 286.9 | CCCCC/C=C\C/C=C\C/C=C\C/C=C\CCCC(=O)O[C@H](CO/C=C\CCCCCCCCCCCCCCCCCC)COP(=O)(O)OCCN [PE(p40:4)] |

same assay, conditions: [M+Na]+; instrument: TW; calibrated with phosphatidylcholines (ESI+) and phosphatidylethanolamines (ESI-)

| Structure (SMILES) | collision cross section (N2) [Å²] |
| --- | --- |
| CCCCCCCCCCCCCCCC(=O)O[C@H](CO)COP(=O)(O)OCCN [LPE(16:0)] | 218.8 |
| CCCCCCCCCCCCC=CC[C@@H](O)[C@H](CO[C@@H]1O[C@H](CO)[C@@H](O)C(O)C1O)NC(=O)CC=CCCCCCCCCCCCCCCCCCC (stereo partly drawn) [GlcCer(d18:1/22:1)] | 290.1 |
| CCCCCCCCCCCCC=CC[C@@H](O)[C@H](CO[C@@H]1O[C@H](CO)[C@@H](O)C(O)C1O)NC(=O)CC=CCCCCCCCCCCCCCCCCCCCCCC (stereo partly drawn) [GlcCer(d18:1/26:1)] | 304.7 |

Continued, values first:

| collision cross section (N2) [Å²] | Structure (SMILES) |
| --- | --- |
| 299.8 | CC/C=C\C/C=C\C/C=C\C/C=C\C/C=C\C/C=C\CCC(=O)O[C@H](COC(=O)CCCCCCCCCCCCCCCCC)COP(=O)(O)O[C@H]1C(O)C(O)C(O)[C@@H](O)C1O (stereo partly drawn) [PI(40:6)] |
| 293.3 | CCCC/C=C\CCCCCCCC(=O)OC[C@H](COP(=O)(O)O[C@H]1C(O)C(O)C(O)[C@@H](O)C1O)OC(=O)CCCCCCCCC/C=C\CCCCCCCCCC (stereo partly drawn) [PI(36:2)] |
| 290.1 | CCCCC/C=C\C/C=C\C/C=C\C/C=C\CCCC(=O)O[C@H](CO/C=C\CCCCCCCCCCCCCCCCCC)COP(=O)(O)OCCN [PE(p40:4)] |
| 288.3 | CC/C=C\C/C=C\C/C=C\C/C=C\C/C=C\CCCC(=O)OC[C@H](COP(=O)(O)OC[C@@H](O)CO)OC(=O)CCCCCCCCC/C=C\C/C=C\CCCCC [PG(40:7)] |

same assay, conditions: [M-H]-; instrument: TW; calibrated with phosphatidylcholines (ESI+) and phosphatidylethanolamines (ESI-)

| Structure (SMILES) | collision cross section (N2) [Å²] |
| --- | --- |
| CCCCCCCCCCCCCCCC(=O)O[C@H](CO)COP(=O)(O)OCCN [LPE(16:0)] | 206 |
| CCCC/C=C\C/C=C\CCCCCCCC(=O)O[C@H](COC(=O)CCCCCCC/C=C\CCCCCCCCC)COP(=O)(O)O [PA(36:3)] | 257.9 |
| CCCCC/C=C\C/C=C\C/C=C\C/C=C\CCCCCC(=O)O[C@H](COC(=O)CCCCCCCCCCCCC)COP(=O)(O)O [PA(36:4)] | 257.1 |
| CCCCCCCCCCCCC=CC[C@@H](O)[C@H](CO)NC(=O)CC=CCCCCCCCCCCCCCCCCCCCC [Cer(d18:1/24:1)] | 266.4 |

Results, then the compound that gave them:

| collision cross section (N2) [Å²] | Structure (SMILES) |
| --- | --- |
| 268.1 | CC/C=C\C/C=C\C/C=C\C/C=C\C/C=C\C/C=C\CCC(=O)O[C@H](CO/C=C\CCCCCCCCCCCCCC)COP(=O)(O)OCCN [PE(p38:6)] |
| 288.7 | CCCC/C=C\CCCCCCCC(=O)OC[C@H](COP(=O)(O)O[C@H]1C(O)C(O)C(O)[C@@H](O)C1O)OC(=O)CCCCCCCCC/C=C\CCCCCCCCCC (stereo partly drawn) [PI(36:2)] |
| 276.1 | CCCCC/C=C\C/C=C\C/C=C\C/C=C\CCCC(=O)O[C@H](CO/C=C\CCCCCCCCCCCCCCCCCC)COP(=O)(O)OCCN [PE(p40:4)] |
